Results on 5 compounds are retold here after ChEMBL document CHEMBL3886524, “Heteroaryl pyridone and aza-pyridone compounds with electrophilic functionality” (2016).

For this experiment, the target named is Tyrosine-protein kinase BTK (Homo sapiens, UniProt Q06187). As to the kind of experiment: Biochemical Btk Assay: A generalized procedure for a standard biochemical Btk, Kinase Assay that can be used to test Formula I compounds is as follows. A master mix minus Btk enzyme is prepared containing 1x Cell Signaling kinase buffer (25 mM Tris-HCl, pH 7.5, 5 mM beta-glycerophosphate, 2 mM dithiothreitol, 0.1 mM Na3VO4, 10 mM MgCl2), 0.5 uM Promega PTK Biotinylated peptide substrate 2, and 0.01% BSA. A master mix plus Btk enzyme is prepared containing 1x Cell Signaling kinase buffer, 0.5 uM PTK Biotinylated peptide substrate 2, 0.01% BSA, and 100 ng/well (0.06 mU/well) Btk enzyme. Btk enzyme is prepared as follows: full length human wildtype Btk (accession number NM-000061) with a C-terminal V5 and 6xHis tag was subcloned into pFastBac vector (Invitrogen/Life Technologies) for making baculovirus carrying this epitope-tagged Btk.
Sequence of Tyrosine-protein kinase BTK (Q06187 whole entry): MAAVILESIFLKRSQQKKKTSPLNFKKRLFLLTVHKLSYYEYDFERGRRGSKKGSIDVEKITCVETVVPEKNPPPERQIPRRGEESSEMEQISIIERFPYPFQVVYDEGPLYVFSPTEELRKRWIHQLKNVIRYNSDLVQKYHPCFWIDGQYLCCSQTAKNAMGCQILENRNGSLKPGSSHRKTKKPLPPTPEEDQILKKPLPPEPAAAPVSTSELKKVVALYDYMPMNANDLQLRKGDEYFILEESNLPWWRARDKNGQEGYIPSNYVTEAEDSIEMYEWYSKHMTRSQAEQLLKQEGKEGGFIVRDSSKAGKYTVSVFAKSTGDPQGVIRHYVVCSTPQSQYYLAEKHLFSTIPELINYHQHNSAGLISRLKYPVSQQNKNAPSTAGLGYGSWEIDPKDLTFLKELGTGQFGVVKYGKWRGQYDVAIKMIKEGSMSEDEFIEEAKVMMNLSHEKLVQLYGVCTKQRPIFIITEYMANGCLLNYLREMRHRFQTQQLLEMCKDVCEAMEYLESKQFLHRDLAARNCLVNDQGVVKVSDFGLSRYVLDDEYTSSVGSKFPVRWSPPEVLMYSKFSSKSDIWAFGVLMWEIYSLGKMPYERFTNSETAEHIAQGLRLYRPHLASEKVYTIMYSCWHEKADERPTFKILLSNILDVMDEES
As a reminder, the Ki is the equilibrium dissociation constant of an inhibitor or competing ligand from its target. Turning to `C=CC(=O)NCCNc1cccc(Nc2cc(-c3ccnc(N4CCn5c(cc6c5CC(C)(C)C6)C4=O)c3CO)cn(C)c2=O)n1`, the Ki was 4.33 nM.

As to `C=CC(=O)NCCN(C)c1cccc(Nc2cc(-c3ccnc(N4CCn5c(cc6c5CC(C)(C)C6)C4=O)c3CO)cn(C)c2=O)n1`, the Ki worked out at 0.683 nM.

With `C=CC(=O)N[C@H]1CCCN(c2cccc(Nc3cc(-c4ccnc(N5CCn6c(cc7c6CC(C)(C)C7)C5=O)c4CO)cn(C)c3=O)n2)C1`, the Ki was found to be 0.888 nM.

For the compound `C=C(C#N)C(=O)NCCOc1cccc(Nc2cc(-c3ccnc(N4CCn5c(cc6c5CC(C)(C)C6)C4=O)c3CO)cn(C)c2=O)n1`, the Ki was 1.7 nM.

For `CC#CC(=O)NCCOc1cccc(Nc2cc(-c3ccnc(N4CCn5c(cc6c5CC(C)(C)C6)C4=O)c3CO)cn(C)c2=O)n1`, the inhibition constant (Ki) is 2.37 nM.
